The values below come from ChEMBL document CHEMBL1139746, “Enzyme inhibition potency enhancement by active site metal chelating and hydrogen bonding induced conformation-restricted cyclopropanecarbonyl derivatives” (Bioorg Med Chem Lett, 2006).

In assay [1] the target is 4-hydroxyphenylpyruvate dioxygenase (Sus scrofa, UniProt Q02110). The assay is described as follows: Inhibition of pig HPPD.
Assay [2] deals with Dihydroorotate dehydrogenase (quinone), mitochondrial (Rattus norvegicus, UniProt Q63707). The assay is described as follows: Inhibition of rat DHODH.
Chain of Dihydroorotate dehydrogenase (quinone), mitochondrial (Q63707 whole entry): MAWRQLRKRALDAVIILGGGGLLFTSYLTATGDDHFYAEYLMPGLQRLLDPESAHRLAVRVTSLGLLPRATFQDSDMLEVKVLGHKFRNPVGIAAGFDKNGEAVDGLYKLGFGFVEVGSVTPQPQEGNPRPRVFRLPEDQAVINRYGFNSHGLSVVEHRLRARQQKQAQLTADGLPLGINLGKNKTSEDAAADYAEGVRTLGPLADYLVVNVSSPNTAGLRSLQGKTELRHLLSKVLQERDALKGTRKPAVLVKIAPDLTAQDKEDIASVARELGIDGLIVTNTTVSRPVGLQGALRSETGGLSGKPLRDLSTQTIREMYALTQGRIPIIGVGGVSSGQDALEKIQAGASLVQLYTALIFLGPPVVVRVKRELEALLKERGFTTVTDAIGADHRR

Chain of 4-hydroxyphenylpyruvate dioxygenase (Q02110 whole entry): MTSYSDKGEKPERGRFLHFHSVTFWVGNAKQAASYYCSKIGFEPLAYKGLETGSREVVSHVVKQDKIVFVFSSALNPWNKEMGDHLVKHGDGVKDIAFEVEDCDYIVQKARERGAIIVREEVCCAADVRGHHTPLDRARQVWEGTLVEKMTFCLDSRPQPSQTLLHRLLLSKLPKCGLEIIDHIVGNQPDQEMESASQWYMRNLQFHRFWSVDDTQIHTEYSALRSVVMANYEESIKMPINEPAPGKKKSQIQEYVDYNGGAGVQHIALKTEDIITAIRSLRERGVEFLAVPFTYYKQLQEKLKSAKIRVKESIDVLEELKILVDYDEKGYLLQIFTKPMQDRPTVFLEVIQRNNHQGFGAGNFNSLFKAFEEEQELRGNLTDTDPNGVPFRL

Regarding `O=C1CCCC(O)=C1C(=O)C1CCC1`, the IC50 (in general, the concentration that gives 50% inhibition) in assay [1] came out at 21 µM.

Compound `O=C(c1c(O)c2ccccc2oc1=O)C1CC1` registered an IC50 in assay [1] of 322 µM. This IC50 is about 15-fold higher than that of the compound before.

As to `CC(C)/C(O)=C(\C#N)C(=O)Nc1ccc(C(F)(F)F)cc1`, the IC50 in assay [2] is 0.295 µM.

For the compound `O=C1CCCC(O)=C1C(=O)C1CCCC1`, in assay [1], the IC50 was 33.1 µM.
